Assays:
[1] = system: protein synthesis in human HeLa cell extract; test: HeLa in vitro translation (GFP expression in cell extract); type: biochemical; details: 100 μM
Procedure: page 27: When test compounds were to be screened, the compound of interest (solubilised in 100% DMSO) was dispensed into assay plates using an Echo® 550 (Labcyte) before L. tarentolae extract and eGFP template DNA were added to assay wells as described above. The reaction was run at room temperature for 120 min before eGFP fluorescence intensity was measured. IC50 curve fitting was undertaken in GraFit version 6.0 (Erithacus Software) using a four-parameter logistic dose-response curve (equation 6), with s the slope. […] GFP expression was monitored over time using a BMG PheraStar plate reader (Excitation 485 nm; Emission 520 nm). When testing DDD806905 and the positive control compound cycloheximide, compounds (solubilised in 100% DMSO) were dispensed into assay plates using an Echo® 550 (Labcyte) before HeLa extract, accessory proteins, reaction mix and GFP template DNA were added to assay wells and GFP expression monitored as described above. Mitochondrial protein synthesis assay The effect of DDD806905 on mitochondrial protein synthesis was determined by BioDuro using the MitoBiogenesisTM In-Cell ELISA Kit (Abcam). […] In the assay the levels of SDH-A and COX-1 are measured in H9C2 cells. These are normalised to DMSO treated cells (vehicle) and then the ratio of normalised SDH-A over COX-1 is calculated. […]

[2] = Plasma protein binding, equilibrium dialysis, human plasma; type: in vitro ADME; details: read-out: fu (unbound fraction)
Procedure: which gave the best fit to the data was then recorded as the logP. Using the logP and an experimentally determined pKa (see above), the software generated a lipophilicity plot showing changes in the logD with increasing pH and from this plot a logD7.3 and logD5.6 values were recorded.
Plasma Protein Binding Determination
A 96-well equilibrium dialysis apparatus was used to determine the free fraction in plasma for DDD806905 (HT Dialysis LLC, Gales Ferry, CT). Membranes (12-14 kDA cut-off) were conditioned in deionised water for 60 minutes, followed by conditioning in 80:20 deionised water:ethanol for 20 minutes, and then rinsed in isotonic buffer before use. Female CD1 mouse plasma or human plasma was removed from the freezer and allowed to thaw on the day of experiment. Thawed plasma was then centrifuged (Allegra X12-R, Beckman Coulter, USA), spiked with test compound (final concentration 10 μg/ml), and 150 μL aliquots (n=6 replicate determinations) loaded into the 96-well equilibrium dialysis plate. […] All samples were analysed by UPLC-MS/MS on a Quattro Premier XE Mass Spectrometer (Waters Corporation, USA).
The unbound fraction (fu) was determined as the ratio of the peak area in buffer to that in plasma. […]

[3] = Mouse pharmacokinetics integrated in efficacy study (blood levels); details: female, BALB/c, whole blood, po, 50 mg/kg; for AUC(0-t): AUC(0-8h); for AUC(0-t) / Cmax: infected mice, 50 mg/kg oral; for Cmax: Cmax in blood

## Cl.Cl.O=c1nc(NCCCNCc2cc3c(Cl)cc(Cl)cc3[nH]2)[nH]c2ccccc12 [DDD806905, 2-((3-(((4,6-dichloro-1H-indol-2-yl)methyl)amino)propyl)amino)quinazolin-4(1H)-one dihydrochloride]
[1]
  inhibition of in vitro translation in HeLa cell extract: no inhibition
[2]
  fraction unbound at 5 h, 10 μg/ml: 0.007
[3]
  Tmax: 2 h
[3]; day 1
  AUC(0-t): 15800 ng·h/mL
[3]; day 10
  AUC(0-t): 23300 ng·h/mL
[3]; first dose day 1
  Cmax: 2600 ng/mL
[3]; first dose day 10
  Cmax: 3200 ng/mL
